“And” between values parts separate entries of the source, which are not always exact repeats. Identical values can stand only once. Like-named read-outs stand apart in the source and are kept apart here.
What was measured:
CXCR2 [1] = target: T1, CXCR2 (Homo sapiens (Human), UniProt P25025); assay: β-arrestin recruitment, β-galactosidase fragment complementation (DiscoveRx)
Target sequence in this assay (P25025 whole entry, species assumed, the tested form may be a part): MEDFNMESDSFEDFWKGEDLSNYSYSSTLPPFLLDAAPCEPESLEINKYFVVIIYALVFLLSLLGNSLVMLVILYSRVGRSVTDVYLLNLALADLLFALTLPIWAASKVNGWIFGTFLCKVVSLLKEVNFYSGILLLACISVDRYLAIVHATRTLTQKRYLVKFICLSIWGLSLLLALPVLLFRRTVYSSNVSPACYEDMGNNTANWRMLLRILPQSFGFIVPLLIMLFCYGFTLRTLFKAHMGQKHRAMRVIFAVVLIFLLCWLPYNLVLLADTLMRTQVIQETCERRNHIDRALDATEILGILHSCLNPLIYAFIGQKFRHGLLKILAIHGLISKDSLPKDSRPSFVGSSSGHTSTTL

Aqueous solubility = assay type: physicochemical
neutrophil influx = assay: Murine air pouch model of neutrophil chemotaxis (p.o.); assay type: in vivo, male CD-1 mice
Procedure: Compounds 1 (SX-517) and 2 (SX-576) were also assayed in an in vivo air-pouch model of inflammation. SX-517 and SX-576 were able to attenuate neutrophil influx in the air-pouch model by about 50% at an oral dose of 0.2 and 0.05 mg/kg, respectively. […] More specifically, the procedure was performed by forming an air pouch on the backs of male CD-1 mice via the subcutaneous injection of air (2 mL). The next day, an additional subcutaneous injection of air (1.5 mL) was performed to reinflate the air pouch. The mice were given either vehicle control (Labrasol®) or test compound solubilized in Labrasol® via oral gavage. After 3 hours, either sterile phosphate buffered saline (PBS, 1 ml) or 2% carrageenan in sterile PBS (1 mL) was injected into the air pouch. After 4 hours, the mice were sedated with ketamine, and sacrificed by cervical dislocation. The exudate in the air pouch was collected by syringe, with an additional 2 mL wash with sterile PBS. The neutrophils were stained with trypan blue and counted on a hemocytometer under 20× magnification.

CXCR2 [2] = target: T1, CXCR2; assay: Agonist activity: intracellular calcium release in human neutrophils in the absence of GROα; assay type: cell-based; settings: for Magnitude of Agonist Response (% of GROα only Control): relative to the response to 25 nM GROα; for EC50: human neutrophils, agonist calcium release
Procedure: (§1) In Tables 1-5, the IC50 or EC50 values were determined using the following assay. This assay measures intracellular calcium release via fluorescence as an indication of CXCR2 receptor activation by the physiologic agonist GROα. The assay is a Ca^2+ mobilization assay that measures changes in intracellular Ca^2+ with a FlexStation II scanning fluorometer using a FLIPR-3 Calcium Assay Kit (Molecular Devices, Sunnyvale, Calif.). The procedure is as follows:
(§2) 9. The maximum change in fluorescence, expressed in arbitrary units over baseline (Max-Min) was used to determine the GROα response. […] Therapeutic Activity
(§3) The maximum change in fluorescence, expressed in arbitrary units over baseline (Max-Min), was used to determine the GROα response.
Intracellular calcium release is a hallmark of CXCR2 activation by endogenous agonists, such as GROα and IL-8.
Target sequence in this assay (P25025 whole entry, the tested form may be a part): as the sequence (P25025 whole entry, species assumed, the tested form may be a part) above

[3] = Crossover pharmacokinetic experiment in Beagle dogs; assay type: in vivo; settings: without excipient
Procedure: In this study, male Beagle dogs (n=5) were dosed intravenously on study day 1 with SX-576 in dimethylformamide/PEG400/saline (40:40:20) at a dose level of 5 mg/kg and a dose volume of 0.5 mL/kg. Blood samples were taken predose, and at time points 30, 60, 90, 120, 180, 360, 540 and 720 minutes. The blood was collected in tubes containing K2EDTA as an anticoagulant, and the tubes were centrifuged and the plasma fractions collected and frozen. After a one-week washout period, the same Beagle dogs were dosed orally with SX-576 in lipid based excipient Gelucire® 44/14 (Gattefosse) at a dose level of 5 mg/kg. Blood samples were then taken and plasma fractions collected as previously described. Prior to analysis, the plasma samples were thawed and diluted 1:3 into acetonitrile containing 1 μM of compound 153 as an internal standard. The resulting samples were centrifuged and the supernatant analyzed by LC-MS monitoring in multiple reaction monitoring mode. The samples were run concomitantly with a calibration curve of SX-576 in the same internal standard solution.
The lipid based excipient Gelucire® 44/14 is a self-emulsifying drug delivery system (SEDDS) that is able to solubilize both SX-517 and SX-576 into aqueous solutions via micellular formation. […] Therefore, lipid-based emulsifiers are important excipients for the oral delivery of SX-576.

CXCR2 [4] = target: T1, CXCR2; assay: Inhibition of GROα-mediated intracellular calcium release in human neutrophils (FLIPR-3 Ca2+ mobilization); assay type: cell-based
Procedure: as §1
Target sequence in this assay (P25025 whole entry, the tested form may be a part): as the sequence (P25025 whole entry, species assumed, the tested form may be a part) above
1. Human neutrophils were suspended in HBSS^− (without Ca^2+ and Mg^2+) containing 10 mM HEPES and FLIPR Calcium 3 dye (3.1×10^7 cells in total volume 1.7 mL).
2. […] As controls, 2 μL of DMSO (1% final concentration) were added to other 2 tubes.
3. Cells were incubated for 30 min at 37° C.
4. After dye loading, tubes were centrifuged at 6,000 rpm for 1 min, supernatant was removed and cell pellet was re-suspended in 200 μL of HBSS^+ (with Ca^2+ and Mg^2+) containing 10 mM HEPES.
5. The compound or DMSO (control) was added again at the same concentrations that were used during cell loading.
6. The cell suspension was aliquoted into a 96-well Reading Plate (Corning) in a volume of 90 μL (10^5 cells/well). The Compound Plate contained physiologic agonist (GROα in HBSS^−) or HBSS^− (control).
as §2
Briefly, human neutrophils were suspended in HBSS^− (without Ca^2+ and Mg^2+) containing 10 mM HEPES and FLIPR Calcium 3 dye (3.1×10^7 cells in total volume 1.7 mL). […] As controls, 2 μL of DMSO (1% final concentration) were added to 2 other tubes. Cells were incubated for 30 min at 37° C. After dye loading, tubes were centrifuged at 6,000 rpm for 1 min, supernatant was removed and the cell pellet was re-suspended in 200 μL of HBSS^+ (with Ca^2+ and Mg^2+) containing 10 mM HEPES. The test compound or DMSO (control) was added again at the same concentrations that were used during cell loading. The cell suspension was aliquoted into a 96-well Reading Plate (Corning) in a volume of 90 μL (10^5 cells/well). The Compound Plate contained agonist (GROα in HBSS^−) or HBSS^− (control).
as §3

CXCR2 [5] = target: T1, CXCR2; assay: 125I-IL-8 radioligand binding inhibition; settings: concentrations up to 10 μM
Source text: In vitro experiments, in addition to those measuring calcium release from human PMNs, provided evidence that the mechanism of action of Compounds 1 and 2 are most consistent with an allosteric (non-competitive) mode of action.
Target sequence in this assay (P25025 whole entry, the tested form may be a part): as the sequence (P25025 whole entry, species assumed, the tested form may be a part) above

[6] = human neutrophils, 25 nM GROα, read-out: IC50

## O=C(Nc1ccc(F)cc1)c1ccc(SCc2ccccc2B(O)O)nc1 [Compound 1, 6-(2-borono-2-yl-benzylsulfanyl)-N-(4-fluoro-phenyl)-nicotinamide]
CXCR2 [1]; absence of IL8
  activity on β-arrestin complexation with CXCR2 in the absence of IL8: inverse agonists
CXCR2 [1]; with IL8
  inhibition of β-arrestin recruitment following CXCR2 activation with IL8: inhibited arrestin recruitment
Aqueous solubility
  aqueous solubility: poor aqueous solubility
Neutrophil influx; high doses, compared to control animals
  total neutrophil counts in the blood: not significantly changed
Neutrophil influx; oral dose 0.2 mg/kg
  attenuation of neutrophil influx: about 50%
Neutrophil influx; p.o., 0.005 and 0.2 (mg/kg)
  neutrophil influx: decrease of neutrophil influx
Neutrophil influx; p.o., doses in excess of 10 mg/kg
  neutrophil influx at high oral dose: increase in neutrophil influx
CXCR2 [2]
  Magnitude of Agonist Response (% of GROα only Control): did not show agonist activity
[3]
  plasma level when dosed without excipient: undetected in plasma
CXCR2 [4]; [6]
  IC50: 0.038 ± 0.003 µM
CXCR2 [4]; in vitro, stated in the binding example, read-out: IC50 in vitro
  IC50: ~0.06 µM
CXCR2 [5]
  displacement of radiolabeled IL-8 binding to CXCR2 receptors: unable to significantly displace

## O=C(Nc1ccc(F)cc1)c1ccc(SCc2ccc(OC(F)(F)F)cc2)nc1 [Compound 41]
CXCR2 [4]; [6]
  IC50: > 10 µM

## O=C(CSc1ccc(C(=O)Nc2ccc(F)cc2)cn1)c1ccc2occc2c1 [Compound 117]
CXCR2 [4]; [6]
  IC50: > 5 µM

## O=C(Nc1ccc(F)cc1)c1ccc(SCc2cc(OC(F)(F)F)ccc2O)nc1 [Compound 14, 6-(2-hydroxy-5-trifluoromethoxy-benzylsulfanyl)-N-(4-fluoro-phenyl)-nicotinamide]
CXCR2 [2]
  EC50: 1800 nM and 1810 nM
  Magnitude of Agonist Response (% of GROα only Control): 15%
CXCR2 [4]; [6]
  IC50: 0.028 ± 0.006 µM

## COc1cc(CSc2ccc(C(=O)Nc3ccc(F)cc3)cn2)c(B(O)O)cc1OC [Compound 5, 6-(2-boronic acid-4,5-di-methoxy-benzylsulfanyl)-N-(4-fluoro-phenyl)-nicotinamide]
CXCR2 [4]; [6]
  IC50: > 10 µM

## O=C(Nc1ccc(F)cc1)c1ccc(SCc2cccc3cccnc23)nc1 [Compound 53]
CXCR2 [4]; [6]
  IC50: > 5 µM

## O=C(Nc1ccc(F)cc1)c1ccc(SCCc2ccccc2B(O)O)nc1 [Compound 9]
CXCR2 [4]; [6]
  IC50: 0.387 ± 0.125 µM

## Cc1onc(-c2ccccc2)c1C(=O)CSc1ccc(C(=O)Nc2ccc(F)cc2)cn1 [Compound 131]
CXCR2 [4]; [6]
  IC50: > 5 µM

## O=C(Nc1ccc(F)cc1)c1ccc(SCc2ccc(B(O)O)cc2)nc1 [Compound 8]
CXCR2 [4]; [6]
  IC50: 0.899 ± 0.15 µM

## O=C(CSc1ccc(C(=O)Nc2ccc(F)cc2)cn1)c1ccncc1 [Compound 115]
CXCR2 [4]; [6]
  IC50: > 10 µM

## Cn1c(CSc2ccc(C(=O)Nc3ccc(F)cc3)cn2)nc2ccccc21 [Compound 67]
CXCR2 [4]; [6]
  IC50: > 10 µM

## Cc1nc(-c2ccc(C(F)(F)F)cc2)sc1CSc1ccc(C(=O)Nc2ccc(F)cc2)cn1 [Compound 71]
CXCR2 [4]; [6]
  IC50: > 10 µM

## O=C(Nc1ccc(F)cc1)c1ccc(SCC(=O)c2cc3ccccc3o2)nc1 [Compound 120]
CXCR2 [4]; [6]
  IC50: > 10 µM

## O=C(Nc1ccc(F)cc1)c1ccc(SCc2ccccc2O)nc1 [Compound 13]
CXCR2 [2]
  EC50: 2400 nM
  Magnitude of Agonist Response (% of GROα only Control): 60%

## Nc1nc(N)c2nc(CSc3ccc(C(=O)Nc4ccc(F)cc4)cn3)cnc2n1 [Compound 57]
CXCR2 [4]; [6]
  IC50: > 10 µM

## O=C(c1ccc(SCc2ccccc2B(O)O)nc1)N(CC1CCCCN1)c1ccc(F)cc1 (centres unmarked) [Compound 156]
CXCR2 [4]; [6]
  IC50: > 5 µM

## O=C(Nc1ccc(F)cc1)c1ccc(SCc2nn[nH]n2)nc1 [Compound 49]
CXCR2 [4]; [6]
  IC50: 3.9 ± 1.2 µM

## O=C(Nc1ccc(F)cc1)c1ccc(SCc2ccc([N+](=O)[O-])o2)nc1 [Compound 75]
CXCR2 [4]; [6]
  IC50: > 5 µM

## O=C(CSc1ccc(C(=O)Nc2ccc(F)cc2)cn1)c1ccc2c(c1)OCO2 [Compound 139]
CXCR2 [4]; [6]
  IC50: > 5 µM

## O=C(CSc1ccc(C(=O)Nc2ccc(F)cc2)cn1)c1ccc([N+](=O)[O-])cc1 [Compound 101]
CXCR2 [4]; read-out: IC50
  IC50: > 10 µM

## O=C(Nc1ccc(F)cc1)c1ccc(SCC2CCCO2)nc1 (centres unmarked) [Compound 76]
CXCR2 [4]; [6]
  IC50: 0.542 ± 0.104 µM

## Cc1nc(-c2ccc(C(F)(F)F)cc2)sc1C(=O)CSc1ccc(C(=O)Nc2ccc(F)cc2)cn1 [Compound 148]
CXCR2 [4]; [6]
  IC50: > 5 µM

## O=C(CSc1ccc(C(=O)Nc2ccc(F)cc2)cn1)c1ccc(Cl)c(Cl)c1 [Compound 93]
CXCR2 [4]; read-out: IC50
  IC50: 1.85 ± 0.55 µM

## O=C(Nc1ccc(F)cn1)c1ccc(SCc2ccccc2B(O)O)nc1 [Compound 164]
CXCR2 [4]; [6]
  IC50: 0.294 ± 0.119 µM

## O=C(CSc1ccc(C(=O)Nc2ccc(F)cc2)cn1)c1ccsc1 [Compound 121]
CXCR2 [4]; [6]
  IC50: > 10 µM

## O=C(Nc1ccc(F)cc1)c1ccc(SCc2ccc(-n3cncn3)cc2)nc1 [Compound 33]
CXCR2 [4]; [6]
  IC50: > 10 µM

## Cc1nc(-c2ccc(CSc3ccc(C(=O)Nc4ccc(F)cc4)cn3)cc2)no1 [Compound 34]
CXCR2 [4]; [6]
  IC50: > 10 µM

Reference: patent US8981106B2, “Pyrimidinecarboxamides as CXCR2 modulators” (Syntrix Biosystems, Inc., priority 2009, dated 2015)
